Measured values as given in patent publication US9394308B2, “Inhibiting the transient receptor potential A1 ion channel” (Merck Sharp & Dohme Corp., priority 2013, dated 2016).
“Also recorded” adds a separate entry of the source.

Key:
[1] = Rodent acute tolerability test, liver function tests (Example 5); type: in vivo, Female Sprague Dawley rats; conditions: rat; for LFT blood levels ALT and AST (in words): intravenous bolus, about 24 hours post dose; for serum biomarkers of hepatotoxicity (in words): in vivo
Description: Compounds of Formula (I) were assessed for acute tolerability in a rodent model at dose levels ranging from 100-200 mg/kg based upon the minimum efficacious dose of each compound. Female Sprague Dawley rats were administered up to a 10 mL/kg dose volume of each compound in 0.9% saline at appropriate concentrations as an intravenous bolus via the lateral tail vein. The animals were observed immediately post dose and for up to twenty four hours post dose and clinical observations were recorded. Additionally, approximately twenty four hours post dose animals were euthanized and blood taken for serum chemistry analysis with a focus on liver function tests (LFTs). The maximum tolerated single dose and LFT results are summarized in Table 3 in FIG. 3, where ( ? ) indicates blood levels of markers for potential liver damage within normal range and (↑) indicates blood levels of markers for potential liver damage elevated above normal range. Referring to the data in Table 3, LFT blood levels of markers for potential liver damage remained within normal range for the compounds of Formula (I), while LFTs were elevated for Comparator Compounds including 5-10 fold elevation above normal for ALT and AST blood levels observed upon administration of Comparator Compound 1.

[2] = Aqueous solubility (Example 2); type: physicochemical; conditions: method of Example 2
Description: Compounds of Formula (I) where R^1 is —CH2—R^1a, and R^1a is phosphate, have suitable levels of aqueous solubility for incorporation in a pharmaceutical composition formulated for intravenous administration. Unless otherwise indicated, the aqueous solubility of compounds of Formula (I) in Tables in FIG. 1 was measured using the procedure of Example 2 (Kerns, E. H., Journal of Pharmaceutical Sciences 2001, 90, 1838-1858, incorporated herein by reference). Solubility data was obtained by this method for compounds of Formula (I) and included in FIG. 1. The chromatographic data was performed using (type of HPLC). The column used was an Xbridge Shield RP18 with the following column dimensions: 4.6×30 mm, 3.5 μm. The mobile phase consisted of deionized water (MPA) with trifluoroacetic acid added in at 0.1% (v/v) (MPC) and HPLC-grade acetonitrile (MPB). The mobile phase flow rate was 2.5 mL/min with the column and sampling operating at ambient temperature. UV detection was set to 280 nm. For all samples used for solubility determination, the mobile phase gradient used was as follows in Table 1g below.
Stock solutions of compounds of Formula (I) where R^1 is —CH2—R^1a, and R^1a is phosphate, were prepared in water at 20 mg/mL. Stock solutions of the compounds of Formula (I), wherein R^1 is hydrogen, were prepared in dimethyl acetamide at 20 mg/mL. […]

CFA Cold Allodynia = test: Rodent cold plate pain model, Complete Freund's Adjuvant (Example 4); type: in vivo; conditions: rat
Description: CFA-induced pain test method reported in del Camino et al., J. Neurosci., 30 (45):15165-15174, incorporated herein by reference in its entirety. Briefly, the right hind paw is sensitized to cold temperature (allodynic) by administering 0.1 mL of Complete Freund's Adjuvant (CFA) to that paw. Two to four days later, the time it takes for the animal to lift its CFA-injected paw from the cold surface is recorded compared to its un-injected normal left hind paw. […] To avoid tissue damage, the maximum cut-off time is five minutes. Animals that are allodynic (average PWL to the first three pain behaviors<150 seconds for the CFA-injected hind paw: ˜≧50% difference between the normal and CFA-injected paw) are included in the study and subsequently randomized across treatment groups. The following day, the animals in some groups are dosed with a test compound under blinded conditions. Following the one to two hour pre-treatment time, the post-dose PWL readings are taken again. The efficacy of the drug treatment is assessed by comparing the PWL in the drug treatment animals to those that receive the vehicle.

| Structure (SMILES) | LFT blood levels ALT and AST (in words) [1] | serum biomarkers of hepatotoxicity (in words) [1] | further results |
| --- | --- | --- | --- |
| C[C@H]1CCCN1c1ncc(-c2cncc(N(COP(=O)(O)O)C(=O)[C@H](C)n3cnc4c3c(=O)n(C)c(=O)n4C)n2)cn1 [((S)-2-(1,3-dimethyl-2,6-dioxo-1,2,3,6-tetrahydro-7H-purin-7-yl)-N-(6-(2-((S)-2-methylpyrrolidin-1-yl)pyrimidin-5-yl)pyrazin-2-yl)propanamido)methyl dihydrogen phosphate] | did not result in abnormally high levels of LFT compounds ALT or AST | – | – |
| C[C@H]1CCCN1c1ccc(-c2csc(NC(=O)Cn3cnc4c3c(=O)n(C)c(=O)n4C)n2)cc1F [Comparator Compound 1, reference compound] | – | elevate the serum biomarkers of hepatotoxicity | – |
| C[C@H]1CCCN1c1ncc(-c2cccc(NC(=O)Cn3cnc4c3c(=O)n(C)c(=O)n4C)n2)cn1 [Comparator Compound 2, reference compound] | – | did not elevate the serum biomarkers of hepatotoxicity | aqueous solubility (in words) [2]: undesirably low aqueous solubility |
| C[C@@H](C(=O)N(COP(=O)([O-])O)c1cccc(-c2cnc(N3CCC[C@H]3C(F)(F)F)nc2)n1)n1cnc2c1c(=O)n(C)c(=O)n2C.[Na+] [Compound 1-A, ((S)-2-(1,3-dimethyl-2,6-dioxo-1,2,3,6-tetrahydro-7H-purin-7-yl)-N-(6-(2-((S)-2-(trifluoromethyl)pyrrolidin-1-yl)pyrimidin-5-yl)pyridin-2-yl)propanamido)methyl dihydrogen phosphate] | did not result in abnormally high levels of LFT compounds ALT or AST | – | effect on cold allodynia (in words) (CFA Cold Allodynia; CFA cold plate model): analgesic effect on cold allodynia; also recorded: reversal of CFA Cold Allodynia; Paw Withdrawal Latency (PWL) (in words) (CFA Cold Allodynia; i.p. administration, CFA model, cold plate 1° C.): increased rodent Paw Withdrawal Latency |
| C[C@@H](C(=O)N(COP(=O)(O)O)c1cncc(-c2cnc(N3CCC[C@H]3C(F)(F)F)nc2)n1)n1cnc2c1c(=O)n(C)c(=O)n2C [Compound 2-E, ((S)-2-(1,3-dimethyl-2,6-dioxo-1,2,3,6-tetrahydro-7H-purin-7-yl)-N-(6-(2-((S)-2-(trifluoromethyl)pyrrolidin-1-yl)pyrimidin-5-yl)pyrazin-2-yl)propanamido)methyl dihydrogen phosphate] | did not result in abnormally high levels of LFT compounds ALT or AST | – | – |
| C[C@@H](C(=O)N(COP(=O)(O)O)c1cncc(-c2cnc(N3CCCC3(C)C)nc2)n1)n1cnc2c1c(=O)n(C)c(=O)n2C [Compound 3-J, (S)-(2-(1,3-dimethyl-2,6-dioxo-1,2,3,6-tetrahydro-7H-purin-7-yl)-N-(6-(2-(2,2-dimethylpyrrolidin-1-yl)pyrimidin-5-yl)pyrazin-2-yl)propanamido)methyl dihydrogen phosphate] | did not result in abnormally high levels of LFT compounds ALT or AST | – | – |
